Test system: NF-κB signaling pathway in MT373 tumors
Assay: MT373 syngeneic sarcoma model: mouse NF-κB signaling pathway profiling panel
Format: in vivo

With `CCn1c(C#CCNc2ccccc2)cc2cc(CNC3CCN(C)CC3)ccc21` [Compound 1, 1-Anilino-3-{1-ethyl-5-[(1-methyl-4-piperidylamino)methyl]-1H-indol-2-yl}-2-propyne] the “Bcl2a1a fold increase over or percent reduction vs vehicle control” value (150 mg/kg BIDx1, 48 h) was 67.64 ± 10.73 fold or %, the “Bcl2l1 fold increase over or percent reduction vs vehicle control” value (150 mg/kg BIDx1, 48 h) was 7.49 ± 1.18 fold or % and the “Bcl3 fold increase over or percent reduction vs vehicle control” value (150 mg/kg BIDx1, 48 h) was 1.35 ± 0.16 fold or %. For the same molecule, the “Bcl10 fold increase over or percent reduction vs vehicle control” value (150 mg/kg BIDx1, 48 h) was 36.06 ± 3.54 fold or %, the “Birc3 fold increase over or percent reduction vs vehicle control” value (150 mg/kg BIDx1, 48 h) was 1.20 ± 0.28 fold or % and the “Card10 fold increase over or percent reduction vs vehicle control” value (150 mg/kg BIDx1, 48 h) was 1.20 ± 0.11 fold or %. The “Card11 fold increase over or percent reduction vs vehicle control” value (150 mg/kg BIDx1, 48 h) was 1.67 ± 0.42 fold or %, the “Casp1 fold increase over or percent reduction vs vehicle control” value (150 mg/kg BIDx1, 48 h) was 10.29 ± 10.66 fold or % and the “Casp8 fold increase over or percent reduction vs vehicle control” value (150 mg/kg BIDx1, 48 h) was 1.02 ± 0.01 fold or %. The “Ccl2 fold increase over or percent reduction vs vehicle control” value (150 mg/kg BIDx1, 48 h) was 67.28 ± 5.26 fold or %, the “Ccl5 fold increase over or percent reduction vs vehicle control” value (150 mg/kg BIDx1, 48 h) was 8.18 ± 19.38 fold or % and the “Cd27 fold increase over or percent reduction vs vehicle control” value (150 mg/kg BIDx1, 48 h) was 1.46 ± 0.26 fold or %. For the same molecule, the “Cd40 fold increase over or percent reduction vs vehicle control” value (150 mg/kg BIDx1, 48 h) was 39.20 ± 14.39 fold or %, the “Cflar fold increase over or percent reduction vs vehicle control” value (150 mg/kg BIDx1, 48 h) was 7.92 ± 8.21 fold or % and the “Chuk fold increase over or percent reduction vs vehicle control” value (150 mg/kg BIDx1, 48 h) was 4.04 ± 12.31 fold or %. For the same molecule, the “Crebbp fold increase over or percent reduction vs vehicle control” value (150 mg/kg BIDx1, 48 h) was 1.12 ± 0.05 fold or %, the “Csf1 fold increase over or percent reduction vs vehicle control” value (150 mg/kg BIDx1, 48 h) was 11.36 ± 7.30 fold or % and the “Csf2 fold increase over or percent reduction vs vehicle control” value (150 mg/kg BIDx1, 48 h) was 62.24 ± 8.70 fold or %. The “Csf3 fold increase over or percent reduction vs vehicle control” value (150 mg/kg BIDx1, 48 h) was 0.37 ± 11.46 fold or %, the “Egfr fold increase over or percent reduction vs vehicle control” value (150 mg/kg BIDx1, 48 h) was 24.42 ± 4.76 fold or % and the “Egr1 fold increase over or percent reduction vs vehicle control” value (150 mg/kg BIDx1, 48 h) was 42.64 ± 12.12 fold or %. For the same molecule, the “Eif2ak2 fold increase over or percent reduction vs vehicle control” value (150 mg/kg BIDx1, 48 h) was 1.01 ± 0.03 fold or %, the “Elk1 fold increase over or percent reduction vs vehicle control” value (150 mg/kg BIDx1, 48 h) was 11.87 ± 8.21 fold or % and the “F2r fold increase over or percent reduction vs vehicle control” value (150 mg/kg BIDx1, 48 h) was 19.79 ± 4.23 fold or %. The “Fadd fold increase over or percent reduction vs vehicle control” value (150 mg/kg BIDx1, 48 h) was 7.23 ± 4.56 fold or %, the “Fasl fold increase over or percent reduction vs vehicle control” value (150 mg/kg BIDx1, 48 h) was 5.96 ± 19.38 fold or % and the “Fos fold increase over or percent reduction vs vehicle control” value (150 mg/kg BIDx1, 48 h) was 47.30 ± 7.08 fold or %. The “Hmox1 fold increase over or percent reduction vs vehicle control” value (150 mg/kg BIDx1, 48 h) was 27.03 ± 7.50 fold or %, the “Icam1 fold increase over or percent reduction vs vehicle control” value (150 mg/kg BIDx1, 48 h) was 3.83 ± 17.26 fold or % and the “Ifng fold increase over or percent reduction vs vehicle control” value (150 mg/kg BIDx1, 48 h) was 43.46 ± 15.02 fold or %. For the same molecule, the “Ikbkb fold increase over or percent reduction vs vehicle control” value (150 mg/kg BIDx1, 48 h) was 1.24 ± 0.09 fold or %, the “Ikbke fold increase over or percent reduction vs vehicle control” value (150 mg/kg BIDx1, 48 h) was 1.71 ± 28.42 fold or % and the “Ikbkg fold increase over or percent reduction vs vehicle control” value (150 mg/kg BIDx1, 48 h) was 3.73 ± 5.88 fold or %. The “Il1a fold increase over or percent reduction vs vehicle control” value (150 mg/kg BIDx1, 48 h) was 28.88 ± 7.08 fold or %, the “Il1b fold increase over or percent reduction vs vehicle control” value (150 mg/kg BIDx1, 48 h) was 18.73 ± 5.15 fold or % and the “Il1r1 fold increase over or percent reduction vs vehicle control” value (150 mg/kg BIDx1, 48 h) was 22.37 ± 5.01 fold or %. For the same molecule, the “Il10 fold increase over or percent reduction vs vehicle control” value (150 mg/kg BIDx1, 48 h) was 1.15 ± 0.09 fold or %, the “Irak1 fold increase over or percent reduction vs vehicle control” value (150 mg/kg BIDx1, 48 h) was 1.00 ± 2.36 fold or % and the “Irak2 fold increase over or percent reduction vs vehicle control” value (150 mg/kg BIDx1, 48 h) was 17.08 ± 1.54 fold or %. The “Irf1 fold increase over or percent reduction vs vehicle control” value (150 mg/kg BIDx1, 48 h) was 7.15 ± 7.58 fold or %, the “Jun fold increase over or percent reduction vs vehicle control” value (150 mg/kg BIDx1, 48 h) was 44.92 ± 3.26 fold or % and the “Lta fold increase over or percent reduction vs vehicle control” value (150 mg/kg BIDx1, 48 h) was 57.16 ± 12.86 fold or %. For the same molecule, the “Ltbr fold increase over or percent reduction vs vehicle control” value (150 mg/kg BIDx1, 48 h) was 13.21 ± 2.85 fold or %, the “Map3k1 fold increase over or percent reduction vs vehicle control” value (150 mg/kg BIDx1, 48 h) was 1.74 ± 0.24 fold or % and the “Mapk3 fold increase over or percent reduction vs vehicle control” value (150 mg/kg BIDx1, 48 h) was 3.13 ± 7.94 fold or %. The “Myd88 fold increase over or percent reduction vs vehicle control” value (150 mg/kg BIDx1, 48 h) was 1.17 ± 0.06 fold or %, the “Nfkb1 fold increase over or percent reduction vs vehicle control” value (150 mg/kg BIDx1, 48 h) was 1.04 ± 0.04 fold or % and the “Nfkb2 fold increase over or percent reduction vs vehicle control” value (150 mg/kg BIDx1, 48 h) was 1.17 ± 0.11 fold or %. For the same molecule, the “Nfkbia fold increase over or percent reduction vs vehicle control” value (150 mg/kg BIDx1, 48 h) was 1.14 ± 0.15 fold or %, the “Nod1 fold increase over or percent reduction vs vehicle control” value (150 mg/kg BIDx1, 48 h) was 1.49 ± 0.08 fold or % and the “Raf1 fold increase over or percent reduction vs vehicle control” value (150 mg/kg BIDx1, 48 h) was 0.48 ± 5.31 fold or %. The “Rel fold increase over or percent reduction vs vehicle control” value (150 mg/kg BIDx1, 48 h) was 1.30 ± 0.16 fold or %, the “Rela fold increase over or percent reduction vs vehicle control” value (150 mg/kg BIDx1, 48 h) was 1.07 ± 0.01 fold or % and the “Relb fold increase over or percent reduction vs vehicle control” value (150 mg/kg BIDx1, 48 h) was 1.09 ± 0.07 fold or %. The “Ripk1 fold increase over or percent reduction vs vehicle control” value (150 mg/kg BIDx1, 48 h) was 1.19 ± 0.07 fold or %, the “Ripk2 fold increase over or percent reduction vs vehicle control” value (150 mg/kg BIDx1, 48 h) was 24.29 ± 6.23 fold or % and the “Slc20a1 fold increase over or percent reduction vs vehicle control” value (150 mg/kg BIDx1, 48 h) was 40.28 ± 6.82 fold or %. The “Smad3 fold increase over or percent reduction vs vehicle control” value (150 mg/kg BIDx1, 48 h) was 1.04 ± 0.08 fold or %, the “Stat1 fold increase over or percent reduction vs vehicle control” value (150 mg/kg BIDx1, 48 h) was 1.36 ± 0.15 fold or % and the “Tbk1 fold increase over or percent reduction vs vehicle control” value (150 mg/kg BIDx1, 48 h) was 1.01 ± 6.05 fold or %. For the same molecule, the “Tlr1 fold increase over or percent reduction vs vehicle control” value (150 mg/kg BIDx1, 48 h) was 1.63 ± 0.28 fold or %, the “Tlr2 fold increase over or percent reduction vs vehicle control” value (150 mg/kg BIDx1, 48 h) was 1.24 ± 0.15 fold or % and the “Tlr3 fold increase over or percent reduction vs vehicle control” value (150 mg/kg BIDx1, 48 h) was 1.00 ± 1.44 fold or %. For the same molecule, the “Tlr4 fold increase over or percent reduction vs vehicle control” value (150 mg/kg BIDx1, 48 h) was 6.31 ± 9.66 fold or %, the “Tlr6 fold increase over or percent reduction vs vehicle control” value (150 mg/kg BIDx1, 48 h) was 1.33 ± 0.08 fold or % and the “Tlr9 fold increase over or percent reduction vs vehicle control” value (150 mg/kg BIDx1, 48 h) was 1.92 ± 0.29 fold or %. The “Tnf fold increase over or percent reduction vs vehicle control” value (150 mg/kg BIDx1, 48 h) was 56.86 ± 13.49 fold or %, the “Tnfaip3 fold increase over or percent reduction vs vehicle control” value (150 mg/kg BIDx1, 48 h) was 1.26 ± 0.33 fold or % and the “Tnfrsf1a fold increase over or percent reduction vs vehicle control” value (150 mg/kg BIDx1, 48 h) was 1.35 ± 0.08 fold or %. For the same molecule, the “Tnfrsf1b fold increase over or percent reduction vs vehicle control” value (150 mg/kg BIDx1, 48 h) was 1.66 ± 0.08 fold or %, the “Tnfrsf10b fold increase over or percent reduction vs vehicle control” value (150 mg/kg BIDx1, 48 h) was 11.34 ± 5.36 fold or % and the “Tnfsf10 fold increase over or percent reduction vs vehicle control” value (150 mg/kg BIDx1, 48 h) was 16.58 ± 3.82 fold or %. The “Tnfsf14 fold increase over or percent reduction vs vehicle control” value (150 mg/kg BIDx1, 48 h) was 1.53 ± 0.40 fold or %, the “Tollip fold increase over or percent reduction vs vehicle control” value (150 mg/kg BIDx1, 48 h) was 2.45 ± 1.53 fold or % and the “Tradd fold increase over or percent reduction vs vehicle control” value (150 mg/kg BIDx1, 48 h) was 1.01 ± 0.06 fold or %. For the same molecule, the “Traf2 fold increase over or percent reduction vs vehicle control” value (150 mg/kg BIDx1, 48 h) was 7.23 ± 7.66 fold or %, the “Traf3 fold increase over or percent reduction vs vehicle control” value (150 mg/kg BIDx1, 48 h) was 13.20 ± 10.35 fold or % and the “Traf5 fold increase over or percent reduction vs vehicle control” value (150 mg/kg BIDx1, 48 h) was 2.99 ± 3.31 fold or %. The “Traf6 fold increase over or percent reduction vs vehicle control” value (150 mg/kg BIDx1, 48 h) was 1.07 ± 0.12 fold or %, the “Zap70 fold increase over or percent reduction vs vehicle control” value (150 mg/kg BIDx1, 48 h) was 1.45 ± 0.41 fold or % and the “Agt fold increase over or percent reduction vs vehicle control” value (150 mg/kg BIDx1, 72 h) was 2.05 ± 0.66 fold or %. The “Akt1 fold increase over or percent reduction vs vehicle control” value (150 mg/kg BIDx1, 72 h) was 1.06 ± 0.07 fold or %, the “Atf1 fold increase over or percent reduction vs vehicle control” value (150 mg/kg BIDx1, 72 h) was 34.00 ± 7.86 fold or % and the “Atf2 fold increase over or percent reduction vs vehicle control” value (150 mg/kg BIDx1, 72 h) was 8.53 ± 13.61 fold or %. For the same molecule, the “Bcl2a1a fold increase over or percent reduction vs vehicle control” value (150 mg/kg BIDx1, 72 h) was 48.45 ± 28.65 fold or %, the “Bcl2l1 fold increase over or percent reduction vs vehicle control” value (150 mg/kg BIDx1, 72 h) was 1.06 ± 0.18 fold or % and the “Bcl3 fold increase over or percent reduction vs vehicle control” value (150 mg/kg BIDx1, 72 h) was 1.22 ± 0.24 fold or %. The “Bcl10 fold increase over or percent reduction vs vehicle control” value (150 mg/kg BIDx1, 72 h) was 23.25 ± 7.71 fold or % and the “Birc3 fold increase over or percent reduction vs vehicle control” value (150 mg/kg BIDx1, 72 h) was 1.13 ± 0.28 fold or %.

From US20230049952A1, “METHODS AND COMPOUNDS FOR RESTORING MUTANT P53 FUNCTION” (PMV Pharmaceuticals, Inc., priority 2020, published 2023)
